{"source": "paper PMC10006169", "about": "“A phase I trial of LXS196, a protein kinase C (PKC) inhibitor, for metastatic uveal melanoma” (British Journal of Cancer, 2023)", "key": {"[1]": {"system": "PKC delta (pPKCd, S299)", "test": "pPKC delta in tumour biopsies (Sally Sue microcapillary electrophoresis)", "format": "in vivo, human", "settings": "QD schedule", "text": "Fresh metastatic tumour biopsies were collected at baseline (prior to first dose) and on treatment at C1D15 to evaluate the modulation of PKC substrate proteins in tumours following exposure to LXS196 and to perform exploratory transcriptome and targeted DNA sequencing. Whole blood samples (peripheral blood mononuclear cells; PBMCs) were collected pre-dose on C1D1 and D15, and at various time points post-dose on C1D1, D2, D3, D15 and D16 to evaluate the modulation of PKC substrate proteins in a surrogate tissue. Owing to the exploratory nature of this phase I study, formal statistical tests were not planned to be performed. Data are presented using descriptive statistics and visualisations. Continuous variables are described with the mean and range. […]\nCustom assays were developed to measure the status of the PKC pathway. In brief, tumour tissue was homogenised in lysis buffer, and total protein concentrations were determined using a bicinchoninic acid (BCA) assay (Pierce). […] Total and phosphorylated PKCdelta (PKCd; pPKCd, phosphorylated at S299) levels were determined using microcapillary electrophoresis on the Sally Sue platform (Protein Simple, San Jose, CA, USA). Area under the peaks corresponding to the target was measured and used for further calculation. […]\nTotal and phosphorylated PKC delta were measured in all feasible tumour biopsies. […] The normalised PKC delta is calculated as follows: […]"}, "[2]": {"system": "patients with MUM", "test": "First cycle dose-limiting toxicities, phase I dose escalation", "format": "in vivo", "settings": "for Maximum tolerated dose (MTD): BLRM and EWOC", "method": "The study protocol and amendments were approved by the Independent Ethics Committee or Institutional Review Board for each centre, and all patients provided written informed consent. The study was conducted according to the principles of the Declaration of Helsinki and performed in compliance with Good Clinical Practice. All patients were aged ≥18 years old and had biopsy-proven MUM with progressive and measurable disease. […] There was no eligibility limit to the number of prior lines of therapy, including PKC inhibitors other than LXS196.\nDuring dose escalation, patients received oral LXS196 either once daily (QD; 100–1000 mg) or twice daily (BID; 200–400 mg) in 28-day cycles until disease progression, intolerable toxicity or withdrawal of consent (Supplementary Fig. 1). Dosing was omitted on the second day of the first cycle (C1D2) to allow for longer post-dose sampling in order to better characterise PK. LXS196 was given on an empty stomach, at least 1 h before or 2 h after a meal. Dose escalation was guided by safety, PK data and a two-parameter Bayesian Logistic Regression Model (BLRM) employing escalation with overdose control (EWOC) criteria. The DLT period lasted 28 days after the first dose of LXS196. […] Upon determination of the MTD/RDE, the expansion part of the study was opened to further evaluate the safety, tolerability, PK and PD of LXS196 at the RDE in patients with MUM. No hypothesis testing was planned in this study, and therefore, no formal sample size calculation was needed. The sample size was selected to ensure the BLRM had adequate operating characteristics when selecting the MTD/RDE.\nRoutine safety assessments, including laboratory assessments, physical examinations, vital signs and electrocardiograms (ECGs), were conducted at regular intervals throughout the study and more frequently as needed following patient assessment by the treating physician. Adverse events (AEs) were assessed continuously according to the National Cancer Institute Common Terminology Criteria for Adverse Events (NCI-CTCAE) v4.03."}}, "note": "Several values for one entry are separate records, joined by “and”; a condition that tells them apart may be missing. Identical values can stand only once.", "data": [{"smiles": "CC1(N)CCN(c2cccnc2NC(=O)c2nc(-c3ncccc3C(F)(F)F)cnc2N)CC1", "note": "[LXS196]", "values": [{"measurement": "pPKC delta, mean (range) percentage change from baseline to C1D15 (normalised ratio)", "setting": "[1]", "result": "−68.1 (−91.4, −28.6) %"}, {"measurement": "Generalised oedema DLT", "setting": "[2]; 100 mg QD n=3", "result": "0 n (%)"}, {"measurement": "Hypotension DLT", "setting": "[2]; 100 mg QD n=3", "result": "0 n (%)"}, {"measurement": "Nausea DLT", "setting": "[2]; 100 mg QD n=3", "result": "0 n (%)"}, {"measurement": "Neutropenia DLT", "setting": "[2]; 100 mg QD n=3", "result": "0 n (%)"}, {"measurement": "Total DLT events", "setting": "[2]; 100 mg QD n=3", "result": "0 n (%)"}, {"measurement": "Vomiting DLT", "setting": "[2]; 100 mg QD n=3", "result": "0 n (%)"}, {"measurement": "Generalised oedema DLT", "setting": "[2]; 200 mg BID n=5", "result": "0 n (%)"}, {"measurement": "Hypotension DLT", "setting": "[2]; 200 mg BID n=5", "result": "0 n (%)"}, {"measurement": "Nausea DLT", "setting": "[2]; 200 mg BID n=5", "result": "0 n (%)"}, {"measurement": "Neutropenia DLT", "setting": "[2]; 200 mg BID n=5", "result": "0 n (%)"}, {"measurement": "Total DLT events", "setting": "[2]; 200 mg BID n=5", "result": "0 n (%)"}, {"measurement": "Vomiting DLT", "setting": "[2]; 200 mg BID n=5", "result": "0 n (%)"}, {"measurement": "Generalised oedema DLT", "setting": "[2]; 200 mg QD n=4", "result": "0 n (%)"}, {"measurement": "Hypotension DLT", "setting": "[2]; 200 mg QD n=4", "result": "0 n (%)"}, {"measurement": "Neutropenia DLT", "setting": "[2]; 200 mg QD n=4", "result": "0 n (%)"}, {"measurement": "Total DLT events", "setting": "[2]; 200 mg QD n=4", "result": "2 (50.0) n (%)"}, {"measurement": "Nausea DLT", "setting": "[2]; 200 mg QD n=4, Grade 3", "result": "1 (25.0) (Grade 3) n (%)"}, {"measurement": "Vomiting DLT", "setting": "[2]; 200 mg QD n=4, Grade 3", "result": "1 (25.0) (Grade 3) n (%)"}, {"measurement": "Generalised oedema DLT", "setting": "[2]; 300 mg BID n=6", "result": "0 n (%)"}, {"measurement": "Hypotension DLT", "setting": "[2]; 300 mg BID n=6", "result": "0 n (%)"}, {"measurement": "Nausea DLT", "setting": "[2]; 300 mg BID n=6", "result": "0 n (%)"}, {"measurement": "Neutropenia DLT", "setting": "[2]; 300 mg BID n=6", "result": "0 n (%)"}, {"measurement": "Total DLT events", "setting": "[2]; 300 mg BID n=6", "result": "0 n (%)"}, {"measurement": "Vomiting DLT", "setting": "[2]; 300 mg BID n=6", "result": "0 n (%)"}, {"measurement": "Generalised oedema DLT", "setting": "[2]; 300 mg QD n=15", "result": "0 n (%)"}, {"measurement": "Hypotension DLT", "setting": "[2]; 300 mg QD n=15", "result": "0 n (%)"}, {"measurement": "Nausea DLT", "setting": "[2]; 300 mg QD n=15", "result": "0 n (%)"}, {"measurement": "Neutropenia DLT", "setting": "[2]; 300 mg QD n=15", "result": "0 n (%)"}, {"measurement": "Total DLT events", "setting": "[2]; 300 mg QD n=15", "result": "0 n (%)"}, {"measurement": "Vomiting DLT", "setting": "[2]; 300 mg QD n=15", "result": "0 n (%)"}, {"measurement": "Hypotension DLT", "setting": "[2]; 400 mg BID n=6", "result": "1 (16.7) n (%)"}, {"measurement": "Nausea DLT", "setting": "[2]; 400 mg BID n=6", "result": "0 n (%)"}, {"measurement": "Neutropenia DLT", "setting": "[2]; 400 mg BID n=6", "result": "0 n (%)"}, {"measurement": "Total DLT events", "setting": "[2]; 400 mg BID n=6", "result": "2 (33.4) n (%)"}, {"measurement": "Vomiting DLT", "setting": "[2]; 400 mg BID n=6", "result": "0 n (%)"}, {"measurement": "Generalised oedema DLT", "setting": "[2]; 400 mg BID n=6, Grade 3", "result": "1 (16.7) (Grade 3) n (%)"}, {"measurement": "Generalised oedema DLT", "setting": "[2]; 500 mg QD n=11", "result": "0 n (%)"}, {"measurement": "Nausea DLT", "setting": "[2]; 500 mg QD n=11", "result": "0 n (%)"}, {"measurement": "Total DLT events", "setting": "[2]; 500 mg QD n=11", "result": "3 (27.3) n (%)"}, {"measurement": "Vomiting DLT", "setting": "[2]; 500 mg QD n=11", "result": "0 n (%)"}, {"measurement": "Hypotension DLT", "setting": "[2]; 500 mg QD n=11, Grade 3", "result": "2 (18.2) (Grade 3) n (%)"}, {"measurement": "Neutropenia DLT", "setting": "[2]; 500 mg QD n=11, Grade 4", "result": "1 (9.1) (Grade 4) n (%)"}, {"measurement": "Generalised oedema DLT", "setting": "[2]; 800 mg QD n=1", "result": "0 n (%)"}, {"measurement": "Nausea DLT", "setting": "[2]; 800 mg QD n=1", "result": "0 n (%)"}, {"measurement": "Neutropenia DLT", "setting": "[2]; 800 mg QD n=1", "result": "0 n (%)"}, {"measurement": "Total DLT events", "setting": "[2]; 800 mg QD n=1", "result": "1 (100) n (%)"}, {"measurement": "Vomiting DLT", "setting": "[2]; 800 mg QD n=1", "result": "0 n (%)"}, {"measurement": "Hypotension DLT", "setting": "[2]; 800 mg QD n=1, Grade 4", "result": "1 (100) (Grade 4) n (%)"}, {"measurement": "Generalised oedema DLT", "setting": "[2]; 1000 mg QD n=4", "result": "0 n (%)"}, {"measurement": "Nausea DLT", "setting": "[2]; 1000 mg QD n=4", "result": "0 n (%)"}, {"measurement": "Neutropenia DLT", "setting": "[2]; 1000 mg QD n=4", "result": "0 n (%)"}, {"measurement": "Total DLT events", "setting": "[2]; 1000 mg QD n=4", "result": "2 (50.0) n (%)"}, {"measurement": "Vomiting DLT", "setting": "[2]; 1000 mg QD n=4", "result": "0 n (%)"}, {"measurement": "Hypotension DLT", "setting": "[2]; 1000 mg QD n=4, Grade 2 and 4", "result": "2 (50.0) (Grade 2 and 4) n (%)"}, {"measurement": "Generalised oedema DLT", "setting": "[2]; All BID n=17", "result": "1 (5.9) n (%)"}, {"measurement": "Hypotension DLT", "setting": "[2]; All BID n=17", "result": "1 (5.9) n (%)"}, {"measurement": "Nausea DLT", "setting": "[2]; All BID n=17", "result": "0 n (%)"}, {"measurement": "Neutropenia DLT", "setting": "[2]; All BID n=17", "result": "0 n (%)"}, {"measurement": "Total DLT events", "setting": "[2]; All BID n=17", "result": "2 (11.8) n (%)"}, {"measurement": "Vomiting DLT", "setting": "[2]; All BID n=17", "result": "0 n (%)"}, {"measurement": "Generalised oedema DLT", "setting": "[2]; All QD n=38", "result": "0 n (%)"}, {"measurement": "Hypotension DLT", "setting": "[2]; All QD n=38", "result": "5 (13.2) n (%)"}, {"measurement": "Nausea DLT", "setting": "[2]; All QD n=38", "result": "1 (2.6) n (%)"}, {"measurement": "Neutropenia DLT", "setting": "[2]; All QD n=38", "result": "1 (2.6) n (%)"}, {"measurement": "Total DLT events", "setting": "[2]; All QD n=38", "result": "8 (21.0) n (%)"}, {"measurement": "Vomiting DLT", "setting": "[2]; All QD n=38", "result": "1 (2.6) n (%)"}, {"measurement": "Generalised oedema DLT", "setting": "[2]; All patients n=55", "result": "1.8 n (%) and 1 (1.8) n (%)"}, {"measurement": "Hypotension DLT", "setting": "[2]; All patients n=55", "result": "6 (10.9) n (%)"}, {"measurement": "Nausea DLT", "setting": "[2]; All patients n=55", "result": "1.8 n (%) and 1 (1.8) n (%)"}, {"measurement": "Neutropenia DLT", "setting": "[2]; All patients n=55", "result": "1.8 n (%) and 1 (1.8) n (%)"}, {"measurement": "Total DLT events", "setting": "[2]; All patients n=55", "result": "16.4 n (%)"}, {"measurement": "Vomiting DLT", "setting": "[2]; All patients n=55", "result": "1.8 n (%) and 1 (1.8) n (%)"}, {"measurement": "Recommended dose for expansion (RDE)", "setting": "[2]; BID", "result": 300, "unit": "mg"}, {"measurement": "Maximum tolerated dose (MTD)", "setting": "[2]; BID schedule", "result": 400, "unit": "mg"}, {"measurement": "Maximum tolerated dose (MTD)", "setting": "[2]; QD schedule", "result": 500, "unit": "mg"}, {"measurement": "Doses at which hypotension DLT occurred", "setting": "[2]; most common DLT", "result": "≥ 500", "unit": "mg/day"}]}]}
